Measurements taken from ChEMBL document CHEMBL1151425, “RNAIII-inhibiting peptide affects biofilm formation in a rat model of staphylococcal ureteral stent infection” (Antimicrob Agents Chemother, 2007).

Columns and labels:
Staphylococcus aureus [1] = test: Antimicrobial activity against Staphylococcus aureus Smith diffuse infected in Wistar rat ureteral stent infection model assessed as bacterial count on ureteral stent at 10 mg/kg, ip after 48 hrs; assay type: functional; conditions: route intraperitoneal
Staphylococcus aureus [2] = test: Antimicrobial activity against Staphylococcus aureus Smith diffuse infected in Wistar rat ureteral stent infection model assessed as bacterial count in urine at 10 mg/kg, ip after 48 hrs; assay type: functional; conditions: route intraperitoneal
Rattus norvegicus [3] = test: Toxicity in Staphylococcus aureus Smith diffuse infected Wistar rat assessed as mortality at 10 mg/kg, ip; assay type: organism-based; parameters: dose 10 mg/kg, route intraperitoneal; conditions: in vivo
Rattus norvegicus [4] = species on record: Rattus norvegicus; test: Toxicity in Staphylococcus aureus Smith diffuse infected Wistar rat containing 1 ug/ml drug-coated ureteral stent assessed as mortality; assay type: organism-based; conditions: in vivo, other
Rattus norvegicus [5] = test: Toxicity in Staphylococcus aureus Smith diffuse infected Wistar rat assessed as drug-related adverse effects at 10 mg/kg, ip; assay type: organism-based; parameters: dose 10 mg/kg, route intraperitoneal; conditions: in vivo
Rattus norvegicus [6] = species on record: Rattus norvegicus; test: Toxicity in Staphylococcus aureus Smith diffuse infected Wistar rat containing 1 ug/ml drug-coated ureteral stent assessed as drug-related adverse effects; assay type: organism-based; conditions: in vivo, other
Rattus norvegicus [7] = test: Toxicity in Staphylococcus aureus Smith diffuse infected Wistar rat containing 1 ug/ml drug-coated ureteral stent assessed as mortality in presence of 10 mg/kg, ip teicoplanin; assay type: organism-based; parameters: dose 10 mg/kg, route intraperitoneal; conditions: in vivo
Rattus norvegicus [8] = test: Toxicity in Staphylococcus aureus Smith diffuse infected Wistar rat containing 1 ug/ml drug-coated ureteral stent assessed as drug-related adverse effects in presence of 10 mg/kg, ip teicoplanin; assay type: organism-based; parameters: dose 10 mg/kg, route intraperitoneal; conditions: in vivo
Staphylococcus aureus [9] = test: Antimicrobial activity against Staphylococcus aureus Smith diffuse infected in Wistar rat ureteral stent infection model containing 1 ug/ml drug-coated stent assessed as bacterial count on ureteral stent after 48 hrs; assay type: functional
Staphylococcus aureus [10] = test: Antimicrobial activity against Staphylococcus aureus Smith diffuse infected in Wistar rat ureteral stent infection model containing 1 ug/ml drug-coated stent assessed as bacterial count in urine after 48 hrs; assay type: functional
Staphylococcus aureus [11] = test: Potentiation of teicoplanin-induced antimicrobial activity against Staphylococcus aureus Smith diffuse infected in Wistar rat ureteral stent infection model containing drug-coated stent assessed as bacterial count on stent after 48 hrs; assay type: functional
Staphylococcus aureus [12] = test: Potentiation of teicoplanin-induced antimicrobial activity against Staphylococcus aureus Smith diffuse infected in Wistar rat ureteral stent infection model containing drug-coated stent assessed as bacterial count in urine after 48 hrs; assay type: functional
Staphylococcus aureus [13] = test: Antimicrobial activity against Staphylococcus aureus Smith diffuse infected in Wistar rat ureteral stent infection model; assay type: functional

| Compound | CFU (Staphylococcus aureus [1]) [×10³ /ml] | CFU (Staphylococcus aureus [2]) [×10⁴ /ml] | Activity (Rattus norvegicus [3]) | Activity (Rattus norvegicus [4]) | Activity (Rattus norvegicus [5]) | Activity (Rattus norvegicus [6]) | Activity (Rattus norvegicus [7]) | Activity (Rattus norvegicus [8]) | CFU (Staphylococcus aureus [9]) [×10³ /ml] | CFU (Staphylococcus aureus [10]) [×10⁴ /ml] | CFU (Staphylococcus aureus [11]) [mL⁻¹] | CFU (Staphylococcus aureus [12]) [mL⁻¹] | MIC (Staphylococcus aureus [13]) [µg/mL] |
| --- | --- | --- | --- | --- | --- | --- | --- | --- | --- | --- | --- | --- | --- |
| CC(=O)N[C@@H]1[C@H](Oc2c3cc4cc2Oc2ccc(cc2Cl)[C@@H](O[C@@H]2O[C@@H](CO)[C@@H](O)[C@H](O)[C@@H]2NC(C)=O)[C@@H]2NC(=O)[C@H](NC(=O)[C@@H]4NC(=O)[C@H]4NC(=O)[C@@H](Cc5ccc(c(Cl)c5)O3)NC(=O)[C@H](N)c3ccc(O)c(c3)Oc3cc(O)cc4c3)c3ccc(O)c(c3)-c3c(O[C@H]4O[C@H](CO)[C@@H](O)[C@@H](O)[C@@H]4O)cc(O)cc3[C@@H](C(=O)O)NC2=O)O[C@@H](CO)[C@@H](O)[C@@H]1O | 3.8 | 2.9 | Non-toxic | Non-toxic | Non-toxic | Non-toxic | Non-toxic | Non-toxic | – | – | – | – | – |
| H-YSPWTNF-NH2 | – | – | – | Non-toxic | Non-toxic | Non-toxic | Non-toxic | Non-toxic | 67 | 4 | <10 | <10 | 1 |
